In paper PMC3925085, “Subditine, a New Monoterpenoid Indole Alkaloid from Bark of Nauclea subdita (Korth.) Steud. Induces Apoptosis in Human Prostate Cancer Cells” (PLoS ONE, 2014):

Experiments:
Assay type in all cases: cell-based
[1] = tested on: LNCaP human prostate cancer cells; experiment: MTT cell proliferation assay, LNCaP; details: for IC50: Homo sapiens, MTT, 24 hours, LNCaP, mean ± S.D.
Procedure: (§1) Human prostate normal cell line (RWPE-1) and human prostate cancer cell lines; LNCaP and PC-3, were purchased from the American Type Culture Collection (ATCC, Manassas, Virginia, USA). LNCaP and PC-3 cells were grown in Roswell Park Memorial Institute medium (RPMI) supplemented with 10% heat-inactivated fetal bovine serum (FBS, Sigma-Aldrich, St. Louis, MO), 1% penicillin and streptomycin. RWPE-1 cells were maintained in Keratinocyte Serum Free Medium (K-SFM, ATCC) supplemented with bovine pituitary extract (BPE) and human recombinant epidermal growth factor (EGF). Mediums were supplemented with 10% heat-inactivated fetal calf serum (Sigma.), 100 U/ml penicillin and […] streptomycin (Flowlab, Sydney, Australia). All cells were maintained in a humidified atmosphere of 5% CO2 in air at 37°C incubator.
(§2) The anti-proliferative activity was evaluated by performing MTT assays as previously described with minor modifications. Briefly, cells were seeded 24 hours prior to treatment in a 96-well plate at 5×10^4 cells/well in order to obtain 70% to 80% confluent cultures. The compounds were dissolved in DMSO (Sigma Chemical Co., St. Louis, Missouri, USA) followed by a 2×serial dilution for 10 points ranged from 0.825 µM to 100 µM. The 96-well plate was incubated for 24 hours at 37°C in a humidified atmosphere with 5% CO2. At the end of incubation, 50 µl of MTT solution (2 mg/ml; Sigma) was added to each well. The plate was then incubated for 4 hours. All medium was removed and the purple formazan crystal formed at the bottom of the wells was dissolved with 200 µl DMSO for 20 minutes. The absorbance at 570 nm was read on a spectrophotometric plate reader (Hidex). The proportion of surviving cells was calculated as: […]
(§3) Dose-response curves were constructed to obtain the IC50 values. Experimental data were derived from 3 independent experiments. The selectivity index was obtained by mean IC50 RWPE-1/mean IC50 of LNCaP or PC-3.

[2] = tested on: PC-3 human prostate cancer cells; experiment: MTT cell proliferation assay, PC-3; details: for IC50: Homo sapiens, MTT, 24 hours, PC-3, mean ± S.D.
Procedure: as §1, §2, §3

[3] = tested on: RWPE-1 human normal prostate epithelial cells; experiment: MTT cell proliferation assay, RWPE-1; details: 24 hours, RWPE-1 normal cells, mean ± S.D.
Procedure: as §1, §2, §3

SMILES | IC50 [1] [µM] | IC50 [2] [µM] | IC50 [3] [µM] | selectivity index (SI) LNCaP ([1]; mean IC50 RWPE-1/mean IC50 of LNCaP) | selectivity index (SI) PC-3 ([2]; mean IC50 RWPE-1/mean IC50 of PC-3)
Cc1cc2cc3n(c(=O)c2cn1)CCc1c-3[nH]c2ccccc12 [Angustidine, angustidine] | 140.27 ± 0.1 | 84.9 ± 1.48 | 36.07 ± 0.05 |  | 
C=Cc1cncc2c(=O)n3c(cc12)-c1[nH]c2ccccc2c1CC3 [Angustine, angustine] | 149.16 ± 0.09 | 122 ± 3.73 | 98.39 ± 0.1 |  | 
CC(O)c1cncc2c(=O)n3c(cc12)-c1[nH]c2ccccc2c1CC3 (centres unmarked) [Angustoline, 1-(1-Hydroxyethyl)-7,8-dihydroindolo[2,3-a]pyridine[3,4-g]quinolizin-5(13H)-one] | 58.09 ± 0.05 | 67.3 ± 0.87 | 65.94 ± 0.04 |  | 

Second part, led by results:

IC50 [1] [µM] | IC50 [2] [µM] | SMILES | IC50 [3] [µM] | selectivity index (SI) LNCaP ([1]; mean IC50 RWPE-1/mean IC50 of LNCaP) | selectivity index (SI) PC-3 ([2]; mean IC50 RWPE-1/mean IC50 of PC-3)
86.35 ± 0.09 | 92.1 ± 1.28 | O=c1c2cnccc2cc2n1CCc1c-2[nH]c2ccccc12 [Nauclefine, nauclefine] | 72.85 ± 0.06 |  | 
1.27 ± 0.04 | 1.33 ± 0.02 | CC(=O)O[C@H]1C(=O)[C@@]2(C)[C@H]([C@H](OC(=O)c3ccccc3)[C@]3(O)C[C@H](OC(=O)[C@H](O)[C@@H](NC(=O)c4ccccc4)c4ccccc4)C(C)=C1C3(C)C)[C@]1(OC(C)=O)CO[C@@H]1C[C@@H]2O [Paclitaxel, paclitaxel, reference compound] | 1.58 ± 0.06 | 1.24 | 1.19
